Data reported in patent US20040122218A1, “Pyrrolopyridine potassium channel openers” (priority 2002, published 2004).

Legend:
Landrace pig bladders = test: In vitro functional model: field-stimulated bladder tissue strips; settings: concentration range of 10^−9 to 10^−5 M, cumulative
Experimental: In Vitro Functional Model
Compounds were evaluated for functional BK channel opening activity using tissue strips obtained from Landrace pig bladders. Landrace pig bladders were obtained from female Landrace pigs of 9-30 kg. Landrace pigs were euthanized with an intraperitoneal injection of pentobarbital solution, Somlethal®, J.A. Webster Inc., Sterling Mass. The entire bladder was removed and immediately placed into Krebs Ringer bicarbonate solution (composition, mM: NaCl, 120; NaHCO3, 20; dextrose, 11; KCl, 4.7; CaCl2, 2.5; MgSO4, 1.5; KH2PO4, 1.2; K2EDTA, 0.01, equilibrated with 5% CO2/95% O2 pH 7.4 at 37° C.). Propranolol (0.004 mM) was included in all of the assays to block β-adrenoceptors. The trigonal and dome portions were discarded. Strips 3-5 mm wide and 20 mm long were prepared from the remaining tissue cut in a circular fashion. The mucosal layer was removed. One end was fixed to a stationary glass rod and the other to a Grass FT03 transducer at a basal preload of 1.0 gram. Two parallel platinum electrodes were included in the stationary glass rod to provide field stimulation of 0.05 Hz, 0.5 milli-seconds at 20 volts. […] The maximal efficacy of each compound (expressed as % relative to P1075) is reported. […] Agonist potencies were also expressed as an index relative to P1075. The index was calculated by dividing the ED50 for P1075 by the ED50 for the test agonist in a given tissue. […]

melting point [°C]	SMILES	effect on stimulated twitch (Landrace pig bladders)
207 to 209	N#Cc1c(N2CCC[C@@H]2CO)[nH]c2cccnc12 [Example 9, (R)-2-(2-Hydroxymethyl-pyrrolidin-1-yl)-1H-pyrrolo [3,2-b]pyridine-3-carbonitrile]	
207 to 209	N#Cc1c(N2CCC[C@H]2CO)[nH]c2cccnc12 [Example 10, (S)-2-(2-Hydroxymethyl-pyrrolidin-1-yl)-1H-pyrrolo [3,2-b]pyridine-3-carbonitrile]	
241 to 242	N#Cc1c(N2CCCCC2)[nH]c2cccnc12 [Example 18, 2-Piperidin-1-yl-1H-pyrrolo[3,2-b]pyridine-3-carbonitrile]	
	CCC(C)(C)N=C(NC#N)Nc1cccnc1 [Example P1075]	completely eliminated the stimulated twitch
